Laboratory results published in US20210196731A1, “COMPOSITIONS AND METHODS FOR TREATING OCULAR INFLAMMATION AND OCULAR SCARRING” (priority 2018, published 2021).

Assays:
HTCFs [1] = experiment: Collagen Contraction Assay V (AHGF induced, APHS and gentamicin vs mitomycin C); format: cell-based, human; settings: APHS 12 and 24 μg/ml
Experimental: HTCFs were seeded at a density of 2.5×10^5 cells/mL within an extracellular matrix (ECM) mixture containing 400 ul of rat tail-derived type I collagen (1.8 mg/ml), 80 ul of neutralizing solution (equal parts Waymouth's media (Gibco, CAT. NO: 11220035) and 0.275M NaOH) and 20 ul of HTCF conditioned media (concentrated to 25× to obtain a 1× final concentration within the 500 ul matrix solution). The cell-collagen solution was pipetted gently to ensure homogenous distribution of HTCFs while avoiding the production of air bubbles, then 500 ul were pipetted into each well of a 24-well tray. Collagen constructs were allowed to polymerize at 37 C for 45 minutes before adding low serum culture media containing DMEM, 2% Fetal Bovine Serum (FBS), 1% penicillin/streptomycin (P/S).
Tension was allowed to build up within the tethered matrix at 37 C and 5% CO2 for 72 hours before a sterile spatula was used to detach each collagen construct from the edges of the culture well. Plates were then immediately scanned on a flat bed laser scanner to record baseline area, and then measured periodically for a duration of 4 days. The surface area of each collagen construct was measured using ImageJ (NIH) and standardized against the baseline surface area measurement to express changes in area as a percentage of original surface area. […]

HTCFs [2] = experiment: Collagen Contraction Assay IV (AHGF induced, ASA and gentamicin vs mitomycin C); format: cell-based, human; settings: ASA 1500 μg/ml and/or gentamicin 750 μg/ml; comparator mitomycin C 0.2 mg/ml for 4 minutes
Experimental: Tension was allowed to build up within the tethered matrix at 37 C and 5% CO2 for 72 hours before a sterile spatula was used to detach each collagen construct from the edges of the culture well. Plates were then immediately scanned on a flat bed laser scanner and then periodically for a total of 4 days. The surface area of each collagen construct was measured using ImageJ (NIH) and standardized against the baseline surface area measurement to express changes in area as a percentage of original surface area.
In this modification of the assay, AHGFs are added to all culture media the collagen constructs are exposed to—from casting of the collagen constructs to the conclusion of contraction. The experimental treatment solutions—all also containing AHGFs—were added 30 minutes prior to detaching the collagen constructs from the culture wells and remained until experimental conclusion. […] DMEM w/2% FBS was added for the remainder of the experiment).

HTCFs [3] = experiment: Lipid Mediator Secretion Assay I (ASA with and without melittin, LC-MS/MS); format: cell-based, human; settings: ASA 200 μg/ml
Experimental: The aim of this experiment was to assess the relative secretion of COX2 vs. acetylated-COX2 products from HTCFs after an inflammatory stimulus followed by exposure to ASA with and without an extremely potent PLA2 agonist—melittin. To this end, multiple primary HTCF cell lines were cultured in DMEM w/10% FBS in 6-well culture plates, incubated at 37 C and 5% CO2, until 90% confluent. The culture media was removed, wells washed with PBS, and then fresh DMEM w/0% FBS was added. After 24 hrs of serum starvation, fresh DMEM w/0% FBS was added, this time containing a physiologically relevant inflammation/wound healing induction mixture (1 ng/ml each of: IL-1b, TNFa, IFNγ, TGFb). After 12 hrs incubation, the induction media was removed, the wells were washed with PBS and fresh DMEM w/0% FBS was added containing one of three experimental treatments for an incubation period of 24 hrs: 1) vehicle control (DMEM w/0% FBS), and 2) ASA 200 (DMEM w/0% FBS and 200 μg/ml ASA), and 3) ASA/Mel. (DMEM w/0% FBS, 200 μg/ml ASA and 10 μg/ml of melittin, a potent PLA2 agonist). At 6, 12 and 24 hrs after addition of the experimental treatments, 250 ul of supernatant was removed from each well, replaced with 250 ul of fresh DMEM w/0% FBS, and stored at −80° C. for subsequent LC-MS/MS analysis. After 24 hrs, the wells were washed with ice cold PBS three times and total cellular protein from the HTCF monolayer was collected for quantification and subsequent western blot analyses. The absolute quantity of protein within each culture well's HTCF monolayer was used as a means to standardize the relative secretion of lipid mediators by HTCFs into the culture well's supernatant.
Relative quantification of secreted lipid mediators was achieved using liquid chromatography tandem mass spectrometry combined with the addition of a known quantity of deuterated versions of the lipid mediators to each sample as internal standards (Item Numbers: #10007737, #320110, #314010, #11182, #315210, #319030, #390030, #10006410, #10006199, #334230, and #10008040, Cayman Chemical). This is a well-established method to determine the relative activity of cyclooxygenase, acetyl-COX2 and lipoxygenase biosynthetic pathways. In brief, the ratios of the integrated areas of the chromatographic peaks corresponding to each analyte and the integrated areas of the peaks corresponding to each analyte's internal standard (with known absolute quantity) are used to determine the relative quantity of each analyte in a given sample. […] The chromatographic profile of the ion count for each m/z transition was monitored, and the area under the peaks (ion intensity vs elution time) was integrated using commercial software (MultiQuant, Sciex).

[4] = tested on: human Tenon's capsule fibroblasts (HTCFs); experiment: Collagen Contraction Assay I (delayed release fibroblast populated collagen lattice); format: cell-based
Experimental: The delayed release fibroblast populated collagen lattice model was used to assess inhibition of gel contraction [58] by ASA and gentamicin. […] Cell free collagen lattices were prepared identically, however to isolate the effects of HTCFs alone on collagen, constructs without HTCFs were cast as a negative control. The cell-collagen solution was pipetted gently to ensure homogenous distribution of HTCFs while avoiding the production of air bubbles, then 500 ul were pipetted into each well of a 24-well tray. Collagen constructs were allowed to polymerize at 37 C for 45 minutes before adding low serum culture media containing DMEM, 2% Fetal Bovine Serum (FBS), 1% penicillin/streptomycin (P/S).
Tension was allowed to build up within the tethered matrix at 37 C and 5% CO2 for 72 hours before a sterile spatula was used to detach each collagen construct from the edges of the culture well. Plates were then immediately scanned on a flat bed laser scanner and then once per hour for the first 12 hours, then daily for a total of 4 days. The surface area of each collagen construct was measured using ImageJ (NIH) and standardized against the baseline surface area measurement to express changes in area as a percentage of original surface area.
Vehicle control treatment solution comprised of DMEM with 2% FBS and 1% penicillin/streptomycin. The gentamicin treatment solution contained DMEM with 2% FBS, 1% penicillin/streptomycin and 1000 μg/ml gentamicin (w/vol) (Sigma-Aldrich, CAT. NO: G1397). The ASA treatment solution contained DMEM with 2% FBS, 1% penicillin/streptomycin and 2000 μg/ml ASA (w/vol) (Sigma-Aldrich, CAT. NO: A5376). The gentamicin-ASA combination treatment solution (Gent+ASA) contained DMEM with 2% FBS, 1% penicillin/streptomycin, 1000 μg/ml gentamicin (w/vol.) and 2000 μg/ml ASA (w/vo).
Culture media was removed from collagen constructs twice daily and replaced with one of the four treatment solutions for a duration of 15 minutes. […]

HTCFs [5] = experiment: Collagen Contraction Assay II (dose dependence); format: cell-based, human
Experimental: Tension was allowed to build up within the tethered matrix at 37 C and 5% CO2 for 72 hours before a sterile spatula was used to detach each collagen construct from the edges of the culture well. Plates were then immediately scanned on a flat bed laser scanner once per 24 hours for a total of 4 days. The surface area of each collagen construct was measured using ImageJ (NIH) and standardized against the baseline surface area measurement to express changes in area as a percentage of original surface area.
The gentamicin concentrations assessed were delivered in a solution contained DMEM with 2% FBS, 1% penicillin/streptomycin and either 100, 250, 500, 750 or 100 μg/ml gentamicin (Sigma-Aldrich, CAT. NO: G1397). The ASA concentrations assessed were delivered in a solution of DMEM with 2% FBS, 1% penicillin/streptomycin and either 500, 1000 or 1500 μg/ml ASA (Sigma-Aldrich, CAT. NO: A5376). […]

[6] = alone or with melittin 10 μg/ml, vs vehicle control

CCCCC#CCSc1ccccc1OC(C)=O [APHS, o-(acetoxyphenyl)hept-2-ynyl sulfide]
AHGF-induced HTCF-mediated collagen contraction (HTCFs [1]): significantly inhibited AHGF-induced HTCF-mediated collagen contraction

CC(=O)Oc1ccccc1C(=O)O [ASA, acetylsalicylic acid]
AHGF induced, HTCF-mediated collagen contraction (HTCFs [2]): significantly negate the effects of the AHGFs on HTCF-mediated collagen contraction, albeit significantly less than the current ophthalmic clinical gold standard
relative amount of COX2 products relative to inf. cytokines control (HTCFs [3]): decrease the relative amount of COX2 products relative to inf. cytokines control
relative secretion of precursor PUFAs (AA, DHA and EPA) (HTCFs [3]; alone or with melittin 10 μg/ml, supernatant at 6, 12, 24 hrs): no significant increase in relative secretion of precursor PUFAs
relative secretion of acetylated-COX2 products (HTCFs [3]; [6]): no significant increase in the relative secretion of acetylated-COX2 products
secretion of COX2 products (HTCFs [3]; [6]): decrease the secretion of COX2 products relative to vehicle control; however this effect was not statistically significant
contraction evident by the end of the four-day period ([4]; ASA 2000 μg/ml alone): approximately 20%
HTCF mediated collagen contraction ([4]; gentamicin 1000 μg/ml and/or ASA 2000 μg/ml, 15 minutes twice daily, four day assay, vs vehicle control): significantly inhibited contraction compared to vehicle control at all time points after the first hour of the experiment
HTCF-mediated collagen contraction (HTCFs [5]; ASA 500 μg/ml, alone or with gentamicin 100-1000 μg/ml (FIG. 8C)): no significant treatment effects found
HTCF-mediated collagen contraction (HTCFs [5]; ASA alone, 500, 1000, 1500 μg/ml, four days (FIG. 8B)): dose dependent inhibition of HTCF-mediated collagen contraction
